Experimental data reported in patent publication US20100190856A1, “Novel Polyhydroxylated Compounds as Fatty Acid Synthase (FASN) Inhibitors” (UNIVERSIDAD COMPLUTENSE DE MADRID, priority 2007, published 2010).
“Also recorded” adds a separate entry of the source.

What was measured:
FASN = target: T1, FASN (Homo sapiens, UniProt P49327); assay: Fatty acid synthase activity assay in SK-Br3 cells (NADPH oxidation, particle-free supernatants); type: cell-based; set-up: FASN activity, % of control cells / FASN activity reduced to / reduction of FASN activity: concentration or dose not given beside the values; conditions: for inhibition of FASN activity (in words): SK-Br3 cells treated 6, 12 and 24 hours; for FASN activity, % of control cells: SK-Br3 cells, 24 h exposure
T1 construct: endogenous in cells; host or cells: SK-Br3 breast cancer cells
T1 sequence (P49327 whole entry): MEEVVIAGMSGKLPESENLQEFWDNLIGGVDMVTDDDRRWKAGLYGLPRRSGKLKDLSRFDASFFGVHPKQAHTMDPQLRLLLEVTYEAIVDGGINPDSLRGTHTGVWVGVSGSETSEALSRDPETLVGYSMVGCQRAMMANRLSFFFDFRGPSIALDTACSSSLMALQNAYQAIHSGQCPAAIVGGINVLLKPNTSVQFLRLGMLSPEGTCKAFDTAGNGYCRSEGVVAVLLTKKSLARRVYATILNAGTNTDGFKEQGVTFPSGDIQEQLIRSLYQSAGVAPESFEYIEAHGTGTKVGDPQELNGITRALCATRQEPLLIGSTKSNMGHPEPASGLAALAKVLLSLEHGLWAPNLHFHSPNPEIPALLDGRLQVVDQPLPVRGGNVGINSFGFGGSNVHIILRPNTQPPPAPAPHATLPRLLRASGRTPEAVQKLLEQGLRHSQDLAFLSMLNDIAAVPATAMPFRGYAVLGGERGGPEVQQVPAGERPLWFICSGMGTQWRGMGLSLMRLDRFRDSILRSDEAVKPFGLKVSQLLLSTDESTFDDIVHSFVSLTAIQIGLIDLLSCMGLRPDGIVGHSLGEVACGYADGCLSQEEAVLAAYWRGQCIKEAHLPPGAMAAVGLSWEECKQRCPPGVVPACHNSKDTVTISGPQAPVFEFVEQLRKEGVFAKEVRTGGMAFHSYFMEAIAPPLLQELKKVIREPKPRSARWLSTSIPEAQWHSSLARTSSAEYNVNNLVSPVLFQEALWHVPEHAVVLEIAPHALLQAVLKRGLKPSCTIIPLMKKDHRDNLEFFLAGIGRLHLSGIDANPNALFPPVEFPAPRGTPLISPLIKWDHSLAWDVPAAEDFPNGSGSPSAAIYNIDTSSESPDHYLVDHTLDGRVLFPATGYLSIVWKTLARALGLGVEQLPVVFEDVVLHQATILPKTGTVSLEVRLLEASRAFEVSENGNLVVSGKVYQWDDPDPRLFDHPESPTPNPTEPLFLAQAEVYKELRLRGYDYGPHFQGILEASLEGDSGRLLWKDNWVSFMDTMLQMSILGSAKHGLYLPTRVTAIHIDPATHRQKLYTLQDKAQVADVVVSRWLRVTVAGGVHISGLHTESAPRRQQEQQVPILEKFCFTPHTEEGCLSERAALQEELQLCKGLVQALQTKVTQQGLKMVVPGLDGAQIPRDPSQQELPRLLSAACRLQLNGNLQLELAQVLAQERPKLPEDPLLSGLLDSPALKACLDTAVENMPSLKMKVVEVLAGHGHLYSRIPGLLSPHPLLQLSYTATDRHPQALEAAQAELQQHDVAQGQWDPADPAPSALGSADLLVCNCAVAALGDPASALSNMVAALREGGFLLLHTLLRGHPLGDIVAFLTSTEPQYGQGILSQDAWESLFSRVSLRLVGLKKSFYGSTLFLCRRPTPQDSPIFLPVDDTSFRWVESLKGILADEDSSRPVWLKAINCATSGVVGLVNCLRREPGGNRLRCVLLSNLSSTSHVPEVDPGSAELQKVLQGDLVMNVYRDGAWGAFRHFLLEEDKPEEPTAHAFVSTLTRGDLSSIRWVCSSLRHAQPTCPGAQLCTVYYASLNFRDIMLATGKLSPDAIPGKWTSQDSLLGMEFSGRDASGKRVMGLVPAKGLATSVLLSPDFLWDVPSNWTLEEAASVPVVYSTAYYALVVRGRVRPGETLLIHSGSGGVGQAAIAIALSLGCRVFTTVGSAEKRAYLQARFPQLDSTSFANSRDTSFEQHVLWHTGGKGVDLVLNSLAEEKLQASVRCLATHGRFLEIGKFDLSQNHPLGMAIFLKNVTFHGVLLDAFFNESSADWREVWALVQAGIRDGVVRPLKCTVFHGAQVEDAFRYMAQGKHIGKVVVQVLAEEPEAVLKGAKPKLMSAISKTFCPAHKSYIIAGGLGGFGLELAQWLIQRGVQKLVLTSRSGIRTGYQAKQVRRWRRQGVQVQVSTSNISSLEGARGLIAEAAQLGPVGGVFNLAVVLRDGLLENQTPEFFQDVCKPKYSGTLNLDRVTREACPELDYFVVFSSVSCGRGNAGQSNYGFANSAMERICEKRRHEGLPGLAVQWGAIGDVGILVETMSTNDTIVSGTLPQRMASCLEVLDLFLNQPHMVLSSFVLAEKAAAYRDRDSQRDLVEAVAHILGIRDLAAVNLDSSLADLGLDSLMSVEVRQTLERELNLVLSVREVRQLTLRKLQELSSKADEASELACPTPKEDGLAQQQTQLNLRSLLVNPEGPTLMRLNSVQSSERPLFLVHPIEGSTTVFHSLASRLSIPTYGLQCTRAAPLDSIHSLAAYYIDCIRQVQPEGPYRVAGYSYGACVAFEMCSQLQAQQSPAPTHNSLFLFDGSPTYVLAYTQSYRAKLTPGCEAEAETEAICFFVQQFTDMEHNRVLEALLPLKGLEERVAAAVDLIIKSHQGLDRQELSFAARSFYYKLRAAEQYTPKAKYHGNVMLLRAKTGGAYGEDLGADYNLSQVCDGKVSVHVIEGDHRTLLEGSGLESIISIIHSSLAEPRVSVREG
Procedure: FASN activity of compounds a, b, e, f, h, i, k, m and q was assayed in particle-free supernatants by recording spectrophotometrically at 37° C. (Lambda Bio 20, Perkin Elmer, EUA; using UV Kinlab 2.80.02 software) the decrease of A340nm due to the oxidation of NADPH, as we previously described. After 6, 12, 24 h of exposure to the tested compound, the cells were harvested by treatment with trypsin-EDTA solution, pelleted by centrifugation, washed twice and resuspended in cold PBS. The cells were sonicated during 30 min at 4° C. (PSelecta ultrasons) and centrifuged for 15 min at 4° C. to keep supernatants particle-free. A sample was taken to measure the protein content by a BioRad assay (Bio-Rad Laboratories). One-hundred and twenty micrograms of protein were pre-incubated during 15 min at 37° C. in 0.2 M of potassium phosphate buffer, pH 7.0, for temperature equilibration. The sample was then added to the reaction mixture: 200 mM potassium phosphate buffer, pH 7.0, 1 mM EDTA (Sigma), 1 mM dithiothreitol (Sigma), 30 μM acetyl-CoA (Sigma), 0.24 mM NADPH (Sigma), in 0.3 mL reaction volume were monitored at 340 nm for 3 min to measure the background NADPH oxidation. After the addition of 50 μM of malonyl-CoA (Sigma), the reaction was assayed for additional 10 min to determine FASN-dependent oxidation of NADPH. Rates were corrected for the background rate of NADPH oxidation in the presence of acetyl-CoA. FASN activity was expressed in nmol NADPH oxidized min^−1 mg protein^−1.

rat CPT-1 = target: T2, rat CPT-1 (Rattus norvegicus, UniProt Q63704); assay: Carnitine palmitoyltransferase 1 (CPT-1) assay, yeast mitochondria; type: biochemical; set-up: % CPT-1 activity: concentration or dose not given beside the values; conditions: for % CPT-1 activity: % of DMSO control, mitochondria of P. pastoris expressing rat CPT-1
T2 construct: made in house; host or cells: Pichia pastoris GS115 (isolated intact mitochondria)
T2 sequence (Q63704 1-772): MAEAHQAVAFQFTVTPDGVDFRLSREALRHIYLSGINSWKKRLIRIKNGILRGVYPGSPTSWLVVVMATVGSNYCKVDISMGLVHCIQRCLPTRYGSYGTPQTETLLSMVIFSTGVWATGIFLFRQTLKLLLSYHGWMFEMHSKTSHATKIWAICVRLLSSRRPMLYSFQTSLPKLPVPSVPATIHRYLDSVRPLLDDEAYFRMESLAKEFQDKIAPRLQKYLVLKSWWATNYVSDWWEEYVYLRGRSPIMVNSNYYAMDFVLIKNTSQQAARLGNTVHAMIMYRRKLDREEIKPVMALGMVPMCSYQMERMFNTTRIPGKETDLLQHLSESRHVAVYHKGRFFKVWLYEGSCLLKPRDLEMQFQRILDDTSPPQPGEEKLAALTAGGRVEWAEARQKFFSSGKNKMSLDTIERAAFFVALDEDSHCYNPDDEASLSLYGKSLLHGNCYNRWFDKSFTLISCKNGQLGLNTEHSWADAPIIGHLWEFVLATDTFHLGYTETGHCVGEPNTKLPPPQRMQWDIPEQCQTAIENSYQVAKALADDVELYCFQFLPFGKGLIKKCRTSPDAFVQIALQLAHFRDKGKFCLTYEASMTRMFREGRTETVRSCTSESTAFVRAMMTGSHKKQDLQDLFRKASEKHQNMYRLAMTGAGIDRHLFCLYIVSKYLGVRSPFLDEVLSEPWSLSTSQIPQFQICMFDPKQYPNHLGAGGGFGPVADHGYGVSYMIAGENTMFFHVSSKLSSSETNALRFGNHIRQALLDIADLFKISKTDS
Source text: The expression plasmid pRCPT-Iβ/pHW010 (provided by Gebre Woldegiorgis, Beaverton, Oreg. Published in Woldegiorgis G. et al. Biochem. Biophys. Res. Commun. 2004, 325, 660-4.) was linearized in the GAP gene promoter by digestion with AvrII and integrated into the GAPp locus of P. pastoris GS115 by electroporation. Histidine prototrophic transformants were selected on YND plates and grown on YND medium. Mitochondria were isolated by disrupting the yeast cells with glass beads as previously described.
CPT activity was assayed by the forward exchange method using L-[^3H] carnitine as previously described (Nicot, C. et al., Biochem. Biophys. Res. Comm. 2004, 325, 2745-7). In a total volume of 0.5 mL, the standard enzyme assay mixture contained 0.2 mM L-[^3H]carnitine (˜5000 dpm/nmol), 80 μM palmitoyl-CoA, 20 mM HEPES (pH 7.0), 1% fatty acid-free albumin, and 40-75 mM KCl, with or without malonyl-CoA as indicated. Reactions were initiated by addition of isolated intact yeast mitochondria. The reaction was linear up to 4 min, and all incubations were done at 30° C. for 3 min. Reactions were stopped by addition of 6% perchloric acid and were then centrifuged at 2000 rpm for 7 min. The resulting pellet was suspended in water, and the product [^3H]palmitoylcarnitine was extracted with butanol at low pH. After centrifugation at 2000 rpm for 2 min, an aliquot of the butanol phase was transferred to a vial for radioactive counting.

ERK1/2 = assay: Immunoblot analysis of ERK1/2 and phospho-ERK1/2 in SK-Br3 cells; type: cell-based, human; conditions: for activation of p-ERK1/2 proteins: SK-Br3, 30 μM, 6 h after treatment; for active form of ERK1/2: within 2 h after treatment
Procedure: Following the treatment of SK-Br3 cells with the studied compound at the desired concentrations and time intervals, cells were harvested by treatment with trypsin-EDTA solution, washed twice with PBS and stored at −80° C. The cells were lysed in lysis buffer (1 mM EDTA, 150 mM NaCl, 100 μg/mL PMSF and 50 mM Tris-HCl, pH 7.5) and kept at 4° C. while they were routinely mixed every 2 min on the vortex during 30 min. A sample was taken for measurement of protein content by a BioRad assay (Bio-Rad Laboratories). Equal amounts of protein were heated in sodium dodecyl sulphate (SDS) sample buffer (Laemmli) for 5 min at 95° C., separated on a 3-8% SDS-polyacrylamide gel (FASN, p185^HER2/neu, phospho-p185^HER2/neu) or 4-12% SDS-polyacrylamide gel (AKT, phospho-AKT, ERK1/2, phospho-ERK1/2 and PARP) and transferred onto nitrocellulose membranes. The membranes were incubated for 1 h at room temperature in blocking buffer (2.5% powdered-skim milk in TBS-T [10 mM Tris-HCl pH 8.0, 150 mM NaCl and 0.05% Tween-20]) to prevent non-specific antibody binding. The primary antibody used was a monoclonal antibody. Antibody dilution was prepared in blocking solution and blots were incubated with monoclonal antibody overnight at 4° C. […] Blots were re-probed with an antibody for β-actin to control for protein loading and transfer.

| Compound | inhibition of FASN activity (in words) (FASN) | FASN activity, % of control cells (FASN) | reduction of FASN activity (FASN; after 6 h of cell exposure) | reduction of FASN activity (FASN; after 24 h of cell exposure) | stimulation of CPT-1 activity (in words) (rat CPT-1) | % CPT-1 activity (rat CPT-1) | activation of p-ERK1/2 proteins (ERK1/2) | active form of ERK1/2 (ERK1/2) |
| --- | --- | --- | --- | --- | --- | --- | --- | --- |
| O=C(Oc1cc(OC(=O)c2cc(O)c(O)c(O)c2)c2ccccc2c1)c1cc(O)c(O)c(O)c1 [f, 1,3-bis[(3,4,5-trihydroxybenzoyl)oxy]naphthalene] | inhibit FASN activity; also recorded: decreased in a time-dependent manner | 10±4% | 50% | 50% | did not stimulate CPT-1 activity; also recorded: without parallel stimulation of CPT-1 activity | 89 ± 4% | marked decrease | marked decrease |
| O=C(Oc1ccc(OC(=O)c2cc(O)c(O)c(O)c2)c2ccccc12)c1cc(O)c(O)c(O)c1 [i, 1,4-bis[(3,4,5-trihydroxybenzoyl)oxy]naphthalene] | inhibit FASN activity; also recorded: decreased in a time-dependent manner | 31±16% | 50% | 50% | did not stimulate CPT-1 activity; also recorded: without parallel stimulation of CPT-1 activity | 90 ± 5% | marked decrease | marked decrease |
